One compound from BindingDB's records for doi:10.1016/s0960-894x(00)00163-3 (Glaxosmithkline, 2000) can be followed below.

Molecules are shown by their SMILES.

This assay deals with T1, Dimer of Gag-Pol polyprotein [501-599,Q508K,L534I,L564I,C568A,C596A] (Human immunodeficiency virus 1, UniProt P03367, C568A/C596A/L534I/L564I/Q508K).
T1 construct: 501-599
The experiment in a line: Protease Inhibition Assay. The conditions noted are these: pH 6.4; 25 °C. As to the method:
The Ki values were determined using fluorogenic substrate, 2-(aminobenzoyl)-Thr-Ile-Nle-Phe(p-NO2)-Gln-ArgNH2. A standard curve relating changes in fluorescent intensity to changes in concentration of product was used to convert fluorescent changes into molar velocities. The amount of cleavage was determined by HPLC.

Broadly, the Ki is the equilibrium dissociation constant of an inhibitor or competing ligand from its target. Higher therefore signals lower affinity. With `O=C(N[C@H]1c2ccccc2C[C@H]1O)[C@H](Cc1ccccc1)C[C@H](O)CN1C(=O)[C@H](Cc2ccccc2)C[C@@H]1Cc1ccccc1` [(2R,4S)-2-benzyl-5-[(3R,5R)-3,5-dibenzyl-2-oxopyrrolidin-1-yl]-4-hydroxy-N-[(1S,2R)-2-hydroxy-2,3-dihydro-1H-inden-1-yl]pentanamide], the Ki is over 0.5 nM.
